Key:
[1] = test system: C57BL/6J mice; experiment: Fasting serum levels of metabolic hormones (ELISA); assay type: in vivo; settings: orlistat 40 mg/kg/day, 8 weeks
Protocol: Mouse serum was analyzed to quantify total serum ghrelin using a mouse enzyme-linked immunosorbent assay (ELISA) ghrelin kit (EIAM-GHR-1) obtained from Raybiotech (Norcross, GA, USA), serum leptin by mouse leptin Duoset ELISA kit (DY49805) obtained from R&D Systems (Minneapolis, MN, USA), serum adiponectin and insulin by commercial mouse ELISA kits (KMP0041 and EMINS) obtained from Thermo Fisher Scientific (Waltham, MA, USA). All assays were carried out following the manufacturer's instructions. Finally, the absorbances were quantified at 450 nm and turbidity corrections at 590 nm using Multiskan™ FC Microplate Photometer (Waltham, MA, USA).

[2] = test system: C57BL/6J mice; experiment: Organ and epididymal fat weight; assay type: in vivo; settings: orlistat 40 mg/kg/day, 8 weeks, Western diet
Protocol: The total body weight gain (g/animal), daily feed intake (g/animal/day), and water consumption was monitored weekly throughout the study. The fecal collection was done per cage, separating fecal matter from bedding on a weekly basis and then stored at −80±3° C. until analysis. After the eight weeks of the study, animals were sacrificed by CO2 asphyxiation. Immediately after, blood was collected by cardiac puncture.

[3] = test system: C57BL/6J mice; experiment: Serum biochemical analysis (TG, HDL, LDL/VLDL, total cholesterol); assay type: in vivo; settings: orlistat 40 mg/kg/day, 8 weeks, fasting serum
Protocol: Total serum high-density lipoprotein (HDL), low-density lipoprotein (LDL)/very low-density lipoprotein (VLDL), and total cholesterol levels were quantified with HDL, and LDL/VLDL Colorimetric/Fluorometric assay Kit (LSK314100) obtained from Lifespan Bioscience (Seattle, […], USA). The assays were carried out following the manufacturer's instructions, and the absorbance was measured using Multiskan™ FC Microplate Photometer (Waltham, MA, USA). In addition, serum triglyceride (TG) levels were measured using a triglyceride colorimetric kit (LSK302200) purchased from Lifespan Bioscience (Seattle, DC, USA).

[4] = molecular target: T1, pancreatic lipase type-VI (Sus scrofa, UniProt P00591); experiment: Pancreatic lipase inhibition and jump dilution (residence time); assay type: biochemical
T1 sequence (P00591 1-450): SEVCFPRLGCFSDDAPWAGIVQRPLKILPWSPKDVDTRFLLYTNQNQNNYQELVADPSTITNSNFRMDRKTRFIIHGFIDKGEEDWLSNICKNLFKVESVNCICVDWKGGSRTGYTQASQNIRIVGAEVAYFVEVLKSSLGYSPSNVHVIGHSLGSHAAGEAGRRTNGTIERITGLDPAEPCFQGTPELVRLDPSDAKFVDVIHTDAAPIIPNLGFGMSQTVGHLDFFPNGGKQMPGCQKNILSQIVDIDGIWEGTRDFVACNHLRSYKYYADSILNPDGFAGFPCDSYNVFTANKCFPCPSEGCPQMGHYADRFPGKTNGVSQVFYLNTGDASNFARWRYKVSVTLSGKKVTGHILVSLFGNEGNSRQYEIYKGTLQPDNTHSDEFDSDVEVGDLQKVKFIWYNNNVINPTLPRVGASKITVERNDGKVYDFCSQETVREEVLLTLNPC
Protocol: Pancreatic lipase inhibition was measured according to the procedures described in our previous study. Briefly, samples, substrate, and pancreatic lipase were dis-solved in McIlvaine buffer (0.1 M Citrate-Na2HPO4, pH 7.4). Then, 50 μL of substrate 4-methylumbelliferyl oleate (1 mM) was pre-incubated with 25 μL of peptide sample for 10 min in a black 96-well microplate. Then, 25 μL of pancreatic lipase type-VI (200 U/mL) were pipetted, and the reaction was carried out for one hour. The production of 4-methylumbelliferone was measured fluorometrically using a Fluoroskan Ascent FL Microplate Fluorometer and Luminometer, ThermoFisher Scientific (Waltham, MA, USA) using an excitation wavelength of 355 nm and emission wavelength of 460 nm. The positive control (no inhibitor) used the buffer instead of the sample, and buffer was used instead of pancreatic lipase solution for negative control (no pancreatic lipase activity). Finally, a jump dilution experiment was carried out, as previously reported by Kumar and Lowery. Briefly, enzyme-inhibitor complexes were formed by pre-incubating the substrate, pancreatic lipase (6000 U/mL), and inhibitors (10×IC50) for three hours. […] Finally, the residence time was calculated by measuring tau determined as the reciprocal of koff after fitting the enzyme progress curves to Equation (1).

[5] = test system: pancreatic lipase; settings: peptides identified from fractionated canary seed proteins; cited from earlier work

Compound: CCCCCCCCCCC[C@@H](C[C@@H]1OC(=O)[C@H]1CCCCCC)OC(=O)[C@H](CC(C)C)NC=O [orlistat]
- serum ghrelin concentration [1]: increased
- Kidney weight [2]: 402.08 ± 7.43 a mg
- serum TG concentration vs WD [3]: effective in lowering
- serum total cholesterol vs WD [3]: no difference
- reversibility of pancreatic lipase inhibition ([4]; 30-fold jump dilution): slow reversibility
- inhibition of pancreatic lipase (PL) in pre-formed complexes ([4]; inhibitor 10×IC50, monitored for three hours): Complete inhibition

Compound: LADR
- inhibitory activity towards pancreatic lipase [5]: high inhibitory activity

Compound: LSPR
- inhibitory activity towards pancreatic lipase [5]: high inhibitory activity

Compound: TVGPR
- inhibitory activity towards pancreatic lipase [5]: high inhibitory activity

Compound: VPPR
- inhibitory activity towards pancreatic lipase [5]: high inhibitory activity
